PubChem BioAssay (NCI)
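Step 1: Grow cells in 96-well plates. Step 2: Expose to compound for 48 hours at 5 concentrations. Step 3: Interpolate endpoints linearly; if unreached, use highest concentration. TGI denotes the concentration required for complete inhibition of growth.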

Experiments:
Experiment in all cases: DTP human tumour cell line panel, 48 h
A498 renal = test system: A498 renal
CAKI-1 renal = test system: CAKI-1 renal
COLO 205 colon = test system: COLO 205 colon
HT29 colon = test system: HT29 colon
LOX IMVI melanoma = test system: LOX IMVI melanoma
MDA-MB-435 = test system: MDA-MB-435
MOLT-4 leukemia = test system: MOLT-4 leukemia
OVCAR-4 ovarian = test system: OVCAR-4 ovarian
SNB-75 CNS = test system: SNB-75 CNS
TK-10 renal = test system: TK-10 renal
UACC-62 melanoma = test system: UACC-62 melanoma

| Compound | TGI (A498 renal) [µM] | TGI (CAKI-1 renal) [µM] | TGI (COLO 205 colon) [µM] | TGI (HT29 colon) [µM] | TGI (LOX IMVI melanoma) [µM] | TGI (MDA-MB-435) [µM] | TGI (MOLT-4 leukemia) [µM] | TGI (OVCAR-4 ovarian) [µM] | TGI (SNB-75 CNS) [µM] | TGI (TK-10 renal) [µM] | TGI (UACC-62 melanoma) [µM] |
| --- | --- | --- | --- | --- | --- | --- | --- | --- | --- | --- | --- |
| O=C1C=CC(=O)C(CNc2ccc(C(=O)OCc3ccccc3)cc2)=C1 | 23.5 | 2.94 | 3.79 | 31.8 | 17.8 | 18.7 | > 100 | 10.4 | 18.4 | 14.9 | 22.6 |
| COc1cc(C(O)c2ccc3c(c2)OCO3)cc(OC)c1OC (centres undefined) | > 100 | > 100 | > 100 | > 100 | > 100 | > 100 | > 100 | > 100 | > 100 | > 100 | > 100 |
| CON(C)C(=O)C1CCCO1 (centres undefined) | > 100 | > 100 | > 100 | > 100 | > 100 | > 100 | > 100 | > 100 | > 100 | > 100 | > 100 |
| O=S1(=O)c2cnccc2NC(=NCc2ccccc2)N1c1ccccc1 | > 100 | > 100 | > 100 | > 100 | > 100 | > 100 | > 100 | > 100 | > 100 | > 100 | > 100 |
| c1ccc(C2CC(=NC3CCCCC3)Nc3ccccc3N2)cc1 (centres undefined) | 93.7 | > 100 | > 100 | > 100 | 55.2 | > 100 | > 100 | > 100 | 78.4 | > 100 | > 100 |
| N#Cc1c(-c2ccccc2)c2c([nH]c1=O)-c1cc([N+](=O)[O-])ccc1CCC2 | 41 | > 100 | 55.3 | > 100 | 81.1 | > 100 | > 100 | > 100 | 49.9 | > 100 | 37.3 |
| CN(C)c1cccc2c1C(=O)C=CC21c2ccc(N(C)C)c3c(N(C)C)ccc(c23)C(c2ccccc2)C1c1ccccc1 (centres undefined) | 22 | 17.2 | 25.7 | 44.9 | 33.7 | 30.2 | 6.82 | 27.2 | 30.9 | 25.5 | 54.7 |
| CN(C)CCCNC(=O)c1c(O)c2ccccc2n(C)c1=O | > 100 | > 100 | > 100 | > 100 | > 100 | > 100 | > 100 | > 100 | > 100 | > 100 | > 100 |
| O=C1C(C(O)(C(F)(F)F)C(F)(F)F)CCC1C(O)(C(F)(F)F)C(F)(F)F (centres undefined) | 6.23 | 19.8 | 1.86 | > 29.3 | 10.6 | > 67.6 | > 100 | > 100 | 7.61 | > 100 | > 100 |
| C[C@H]1[C@H](C)CC[C@]2(C(=O)OC3OC(CO)C(O)C(O)C3O)CC[C@]3(C)C(=CC[C@@H]4[C@@]5(C)C[C@H]6OC(=O)c7cc(O)c(O)c(O)c7-c7c(cc(O)c(O)c7O)C(=O)O[C@@H]6C(CO)(CO)[C@@H]5CC[C@]43C)[C@H]12 (some centres undefined) | > 100 | > 84.1 | > 100 | > 56 | 34.5 | 36.2 | > 74.4 | > 100 | > 100 | > 100 | > 100 |
| COC1C(O)C(O[C@H]2CC[C@@]3(C)C(CC[C@@H]4[C@@H]3CC[C@]3(C)[C@@H](C(C)OC5OC(CO)C(O)C(O)C5O)CC[C@]43O)C2)OC(C)C1OC1OC(CO)C(O)C(O)C1O (some centres undefined) | > 100 | > 100 | > 100 | > 100 | > 100 | > 100 | > 100 | > 100 | > 100 | > 100 | > 100 |
| CC(C)/C(Cl)=N/OC(=O)Nc1ccc(OC(F)(F)F)cc1 | 32.9 | 9.55 | 3.26 | 35.9 | 5.89 | 25.3 | > 77.9 | 16.7 | 29 | 29.3 | 30.2 |
| CCN(CC)CCO/N=C1\CC[C@H]2[C@@H]3CCc4cc(OC)ccc4[C@H]3CC[C@]12C | 9.28 | 2.13 | 3.03 | 2.07 | 2.04 | 1.48 | 3.72 | 22.4 | 9.25 | 15.9 | 2.02 |
| O=C(O)CN(CC(=O)O)C(C(=O)O)c1ccccc1 (centres undefined) | > 100 | > 100 | > 100 | > 100 | > 100 | > 100 | > 100 | > 100 | > 100 | > 100 | > 100 |
